Experiment: Inhibition of Mycobacterium tuberculosis H37Rv full-length PTPB expressed in Escherichia coli […] using 6,8-difluoromethylumbelliferyl phosphate as substrate assessed as inhibition of substrate hydrolysis

Row | Compound | IC50
1 | SODIUM ORTHOVANAD | 82 nM
2 | CC(=O)c1cc(C)c(O)c(CC2=C(C)C(=O)C(O)=C(C)C2=O)c1O | 1370 nM
3 | CC(=O)c1cc(C)c(O)c(Cc2c(O)cc(-c3ccc(O)c(O)c3)oc2=O)c1O | 160 nM

Source: ChEMBL document CHEMBL3232773, “Peniphenones A-D from the mangrove fungus Penicillium dipodomyicola HN4-3A as inhibitors of Mycobacterium tuberculosis phosphatase MptpB” (J Nat Prod, 2014)
